Values quoted from earlier work as cited in PubChem BioAssay AID1259409 (Chemical Carcinogenesis Research Information System (CCRIS), 2018).

Tested on: rodent chemically induced tumor inhibition, incidence and multiplicity
Experiment: CCRIS tumor inhibitor studies
Conditions: Carcinogen: N-METHYL-N'-NITRO-N-NITROSOGUANIDINE [70-25-7], Dose [Inhibitor]: 100 MG/KG BW AQUALEN (ACTIVATED CARBON FIBER ADSORBENT) IN DIET 5X/WK FOR 16 MONTHS (STUDY DURATION: 16 MONTHS), Route [Inhibitor]: ORAL, Species: RAT, Strain/Sex: LIO/FEMALE, Dose [Carcinogen]: 100 MG/L IN DRINKING WATER 5X/WK FOR 12 MONTHS (STUDY DURATION: 16 MONTHS), Promoter: NONE

C
tumour outcome (control, treated, inhibition, significance) (Target Tissue: Type of Lesion: DUODENUM: ADENOCARCINOMA): 2/14 (14.3%), 0/13 (0.0%), 100%, not significant
tumour outcome (control, treated, inhibition, significance) (Target Tissue: Type of Lesion: LIVER: CYSTOCHOLANGIOMA): 2/14 (14.3%), 0/13 (0.0%), 100%, not significant
tumour outcome (control, treated, inhibition, significance) (Target Tissue: Type of Lesion: STOMACH: CARCINOMA IN SITU): 1/14 (7.1%), 4/13 (30.8%), -334%, not significant
tumour outcome (control, treated, inhibition, significance) (Target Tissue: Type of Lesion: STOMACH: INVASIVE ADENOCARCINOMA): 5/14 (35.7%), 1/13 (7.7%), 78%, p<0.05
